# Assay results reported in paper PMC10177262, “A Novel CD206 Targeting Peptide Inhibits Bleomycin-Induced Pulmonary Fibrosis in Mice” (Cells, 2023).
# Test system: BLM-induced lung fibrosis in C57BL/6J mice
# Assay: Late BLM model, comparison and combination with Pirfenidone
# Format: in vivo, mouse
# Conditions: RP-832c 10 mg/kg QD; Pirfenidone 30 mg/kg Q3D; monotherapy, 21 days; n = 6
# Protocol: C57BL/6J mice were obtained from Envigo, Indianapolis, IN, USA. All animal studies were approved by the IACUC (Murigenics, Inc., Vallejo, CA, USA). After 3 days of acclimation, the mice were challenged with a single 2.5 U/kg body weight dose of bleomycin (BLM) intratracheally (IT), and a vehicle (normal saline) or RP-832c(QD) was administered subcutaneously for 21 days starting 3- and 14-days post-BLM-challenge. Body weights were measured daily, and lung weight was measured at the end of each study.
# At the end of the study, the mice were sacrificed using CO2 followed by cervical dislocation (according to IACUC guidelines), and the lungs were collected and fixed in 10% formalin. After 48 h of fixation, the lungs were processed into tissue sections. […] All slides were scanned using a Leica Aperio SC2 scanner and blindly evaluated by two independent pathologists. A total of 10 representative fields of 20× IHC images per tissue section were individually analyzed for the total number of cells/area using a confocal microscope (Olympus, New York, NY, USA). All quantitative data were normalized to appropriate control images.
# Pirfenidone and Nintedanib are the only two FDA-approved drugs for lung fibrosis; therefore, we tested any synergistic effects of RP-832c peptide with these drugs. […] Combination therapy was also evaluated (Figure 5A and Figure S5). […]
smiles,measurement,value
Cc1ccc(=O)n(-c2ccccc2)c1 [Pirfenidone],CD206 expression in lung (IHC),decreased CD206 expression
